# Experimental data from patent US12472164B2, “Masitinib for the treatment of sickle cell disease” (AB SCIENCE, priority 2019, dated 2025).
# Assays:
# [1] = tested on: lung tissue of SCD (HbSS) Townes mice; experiment: Lung tissue histology (hematoxylin and eosin; anti-FcεRIα immunostaining) of SCD mice after substance P injection; assay type: in vivo; details: masitinib 100 mg/kg/day via gavage for 4 days prior to substance P
# Experimental: The Townes transgenic mouse model was utilized for this study (Wu L C et al., Blood 2006; 108:1183-1188). A total of 18 mice were assigned to 3 treatment groups; namely: SCD (HbSS mice) treated with masitinib (SCD Masitinib—intervention group), untreated SCD mice (SCD—positive control group), and WT mice (WT—negative control group). Mice were administered freshly prepared solutions of substance P (4 to 40 mg/kg) via intravenous injection. Mice in the intervention group were administered masitinib at 100 mg/kg/day via gavage for 4 days prior to injection of substance P. Lung tissue was processed immediately after death by cervical dislocation and fixed in 10% buffered formalin. For analysis of the lung tissue cellular structure, samples were stained with hematoxylin and eosin. For analysis of mast cell infiltration, samples were stained with an anti-FcεRIα primary antibody and a fluorophore secondary antibody. The cause of death was then analyzed. […] Lung tissue sections were stained with hematoxylin and eosin. For immunofluorescence, lung tissue sections were incubated with an anti-FcεRIα primary antibody and then stained with a fluorophore secondary antibody.
# [2] = tested on: SCD (HbSS mice), Townes transgenic mouse model; experiment: Substance P-induced vaso-occlusive crisis (VOC) occurrence and overall survival in Townes transgenic sickle mice; assay type: in vivo
# Source text: The Townes transgenic mouse model was utilized for this study (Wu L C et al., Blood 2006; 108:1183-1188). A total of 18 mice were assigned to 3 treatment groups; namely: SCD (HbSS mice) treated with masitinib (SCD Masitinib—intervention group), untreated SCD mice (SCD—positive control group), and WT mice (WT—negative control group).
# The HbSS-Townes mouse model was created on a mixed genetic background in which the murine adult α-globin genes were replaced with the human α-globin gene (genotype: Hba hα/hα) and the murine adult β-globin genes were replaced with human sickle βS- and fetal Aγ-globin gene fragments linked together (genotype: Hbb hAγβS/hAγβS) (Nguyen J, et al., Blood 2014; 124(21):4916). HbSS-Townes mice have anemia, a shortened red blood cell half-life of 2.5 days and a severe disease phenotype. Control HbAA-Townes mice were created by replacing the murine globin genes with human α-globin gene (genotype: Hba hα/hα) and linked human βA- and fetal Aγ-globins (genotype: Hbb hAγβA/hAγβA).
# Mice were administered freshly prepared solutions of substance P (4 to 40 mg/kg) via intravenous injection.
# Mice in the intervention group were administered masitinib at 100 mg/kg/day via gavage for 4 days prior to injection of substance P. […]
# Vaso-occlusive crisis (VOC) occurrence and overall survival were analyzed in the mice. […]
structure (smiles),measurement,setting,value
"Cc1ccc(NC(=O)c2ccc(CN3CCN(C)CC3)cc2)cc1Nc1nc(-c2cccnc2)cs1 [masitinib, 4-(4-methylpiperazin-1-ylmethyl)-N-[4-methyl-3-(4-pyridin-3ylthiazol-2-ylamino)phenyl]benzamide]",Infiltration of lung tissue by FcεRI-positive cells (mast cells),"[1]; anti-FcεRIα immunofluorescence, versus untreated SCD mice (FIGS. 2A to 2H)",to a far lesser degree
same,Development of acute chest syndrome (ACS),[1]; concluded from limited FcεRI-positive cell infiltration and absent or limited edema,did not develop ACS
same,Lung edema,"[1]; hematoxylin and eosin staining, versus untreated SCD mice",reduced
same,Overall survival (death),"[2]; SCD mice pretreated with masitinib 100 mg/kg/day via gavage for 4 days prior to injection of substance P, 83% of untreated SCD mice died in the first 3 hours (FIG. 1)",none died
same,Vaso-occlusive crisis (VOC) occurrence,"[2]; SCD mice pretreated with masitinib 100 mg/kg/day via gavage for 4 days prior to intravenous injection of substance P, all untreated SCD mice experienced VOC",did not present any VOC
